The values below come from article PMC10728186, “Acid phosphatase-like proteins, a biogenic amine and leukotriene-binding salivary protein family from the flea Xenopsylla cheopis” (Communications Biology, 2023).

Common to all, as to format: binding
The target in experiment [1] is T1, XcAP-1 (Xenopsylla cheopis, UniProt A2IA89).
T1 construct: mature ORF (no signal peptide) in VR1020 vector, secreted from HEK293 / Expi293; monomer; residues Asp7-Asn361 (mature count) seen in crystal; natural Gly and Ser in place of the two catalytic His
T1 sequence (A2IA89 17-374): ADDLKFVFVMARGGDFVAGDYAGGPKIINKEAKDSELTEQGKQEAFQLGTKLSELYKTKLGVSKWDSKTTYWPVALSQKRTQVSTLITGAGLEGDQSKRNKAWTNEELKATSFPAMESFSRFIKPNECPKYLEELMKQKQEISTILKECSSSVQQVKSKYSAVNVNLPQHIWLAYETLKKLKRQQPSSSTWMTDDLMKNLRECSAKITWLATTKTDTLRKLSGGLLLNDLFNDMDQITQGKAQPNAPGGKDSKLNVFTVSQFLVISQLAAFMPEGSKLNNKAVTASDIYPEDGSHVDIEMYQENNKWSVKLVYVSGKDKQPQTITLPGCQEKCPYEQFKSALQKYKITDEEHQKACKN
Nature of the experiment: isothermal titration calorimetry. From the text: isothermal titration calorimetry on XcAP-1

Another experiment concerns the target T2, XcAP-3 (Xenopsylla cheopis, UniProt A2IA90).
T2 construct: mature ORF (no signal peptide) in pcDNA3.1(+), secreted from HEK293 / Expi293; natural Gly and Pro in place of the two catalytic His; Thr10, Ile229, Lys266 (mature count)
T2 sequence (A2IA90 20-380): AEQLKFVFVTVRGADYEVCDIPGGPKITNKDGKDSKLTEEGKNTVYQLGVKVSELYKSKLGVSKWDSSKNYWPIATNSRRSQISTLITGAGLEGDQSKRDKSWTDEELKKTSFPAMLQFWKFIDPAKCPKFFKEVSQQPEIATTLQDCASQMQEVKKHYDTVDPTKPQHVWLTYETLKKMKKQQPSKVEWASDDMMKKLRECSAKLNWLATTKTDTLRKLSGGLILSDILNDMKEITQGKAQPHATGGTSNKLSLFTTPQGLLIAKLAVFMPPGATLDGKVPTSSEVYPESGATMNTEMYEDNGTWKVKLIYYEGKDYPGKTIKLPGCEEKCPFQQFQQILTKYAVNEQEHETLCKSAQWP
Nature of the experiment: isothermal titration calorimetry. From the text: isothermal titration calorimetry on XcAP-3

The target of the next experiment is T3, XcAP-2 (Xenopsylla cheopis, UniProt A2IA93).
T3 construct: mature ORF (no signal peptide) in pcDNA3.1(+), secreted from HEK293 / Expi293; natural Gly and Pro in place of the two catalytic His; Thr10, Ile228, His265 (mature count)
T3 sequence (A2IA93 20-378): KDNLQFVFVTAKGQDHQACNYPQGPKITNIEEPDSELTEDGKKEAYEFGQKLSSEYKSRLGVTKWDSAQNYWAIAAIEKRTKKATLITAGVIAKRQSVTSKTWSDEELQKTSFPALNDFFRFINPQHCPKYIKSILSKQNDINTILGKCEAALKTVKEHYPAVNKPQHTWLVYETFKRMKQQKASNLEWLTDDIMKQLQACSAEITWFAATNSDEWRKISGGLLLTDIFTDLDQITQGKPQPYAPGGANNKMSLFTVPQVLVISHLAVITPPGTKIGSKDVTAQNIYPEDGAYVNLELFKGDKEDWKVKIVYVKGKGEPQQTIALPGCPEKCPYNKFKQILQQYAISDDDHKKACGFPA
In words: isothermal titration calorimetry. The text has this: isothermal titration calorimetry on XcAP-2

Experiment [2] has as its target T1, XcAP-1. Nature of the experiment: isothermal titration calorimetry; crystal structure […] A.
The target of experiment [3] is T1, XcAP-1. Nature of the experiment: crystal structure […] A. The following applies: co-purified from HEK293 culture, modelled from density; pocket near substituted catalytic residues; second site beside serotonin.

Read-outs that look alike come from different tables or passages of the source.

`CNC[C@H](O)c1ccc(O)c(O)c1` [Epinephrine]: on XcAP-1 [1] (read-out: XcAP-1), the Kd turned out to be 17.7 nM.

With `NCCc1c[nH]cn1` [Histamine], the Kd at XcAP-3 (read-out: K (M^-1) (converted)) is 29.2 nM; at XcAP-3 (read-out: XcAP-3), 37 nM; at XcAP-2 (read-out: K (M^-1) (converted)), 43.9 nM; on XcAP-2 (read-out: XcAP-2), 37.7 nM.

Turning to `CCCCC/C=C\C[C@@H](O)/C=C/C=C/C=C\[C@@H](O)CCCC(=O)O` [LTB4], the Kd at XcAP-2 (read-out: XcAP-2) is 111 nM.

Take `CCCCC/C=C\C\C=C/C=C/C=C/[C@@H](SC[C@H](NC(=O)CC[C@H](N)C(=O)O)C(=O)NCC(=O)O)[C@@H](O)CCCC(=O)O` [LTC4]: the Kd amounted to 37.4 nM on XcAP-1 [1] (read-out: XcAP-1), 65.8 nM at XcAP-3 (read-out: XcAP-3) and 78.7 nM on XcAP-2 (read-out: XcAP-2).

Take `CCCCC/C=C\C\C=C/C=C/C=C/[C@@H](SC[C@H](N)C(=O)NCC(=O)O)[C@@H](O)CCCC(=O)O` [LTD4]: on XcAP-2 (read-out: XcAP-2), the Kd was 153 nM.

`CCCCC/C=C\C\C=C/C=C/C=C/[C@@H](SC[C@H](N)C(=O)O)[C@@H](O)CCCC(=O)O` [LTE4]: the Kd at XcAP-2 (read-out: XcAP-2) is 60.2 nM.

As to `NC[C@H](O)c1ccc(O)c(O)c1` [Norepinephrine], the Kd on XcAP-1 [1] (read-out: XcAP-1) came to 76.9 nM.

As for `NCCc1c[nH]c2ccc(O)cc12` [Serotonin], the Kd was 5.92 nM at XcAP-1 [1] (read-out: K (M^-1) (converted)) and 3.72 nM on XcAP-1 [2].

As for `CCCCCC/C=C\CCCCCCCC(=O)O` [palmitoleic acid], the “crystal structure 1.75 A” value on XcAP-1 [3] is on record as “near the putative catalytic site of XcAP-1 was also observed, in which we modeled a palmitoleic acid”.
